According to US12358960B2, “Selective targeting of ubiquitin- and ubiquitin-like E1-activating enzymes by structurally-stabilized peptides” (Dana-Farber Cancer Institute, Inc., priority 2019, dated 2025):
“Also recorded” adds a separate entry of the source. Bridge positions count the residues as written; N and C are the ends. Square brackets hold non-standard residues; d marks the D form. Ends that are not written are not given here. * marks the point of attachment. R8 = C=CCCCCCC[C@@](C)(N)C(=O)O; S5 = C=CCCC[C@](C)(N)C(=O)O; Nle = CCCC[C@H](N)C(=O)O; Dab = NCC[C@H](N)C(=O)O; Acryloyl = C=CC(=O)*

Target: T1, Human E1 activating enzyme UBA1 (Homo sapiens, UniProt P22314)
T1 sequence (P22314 1-1058): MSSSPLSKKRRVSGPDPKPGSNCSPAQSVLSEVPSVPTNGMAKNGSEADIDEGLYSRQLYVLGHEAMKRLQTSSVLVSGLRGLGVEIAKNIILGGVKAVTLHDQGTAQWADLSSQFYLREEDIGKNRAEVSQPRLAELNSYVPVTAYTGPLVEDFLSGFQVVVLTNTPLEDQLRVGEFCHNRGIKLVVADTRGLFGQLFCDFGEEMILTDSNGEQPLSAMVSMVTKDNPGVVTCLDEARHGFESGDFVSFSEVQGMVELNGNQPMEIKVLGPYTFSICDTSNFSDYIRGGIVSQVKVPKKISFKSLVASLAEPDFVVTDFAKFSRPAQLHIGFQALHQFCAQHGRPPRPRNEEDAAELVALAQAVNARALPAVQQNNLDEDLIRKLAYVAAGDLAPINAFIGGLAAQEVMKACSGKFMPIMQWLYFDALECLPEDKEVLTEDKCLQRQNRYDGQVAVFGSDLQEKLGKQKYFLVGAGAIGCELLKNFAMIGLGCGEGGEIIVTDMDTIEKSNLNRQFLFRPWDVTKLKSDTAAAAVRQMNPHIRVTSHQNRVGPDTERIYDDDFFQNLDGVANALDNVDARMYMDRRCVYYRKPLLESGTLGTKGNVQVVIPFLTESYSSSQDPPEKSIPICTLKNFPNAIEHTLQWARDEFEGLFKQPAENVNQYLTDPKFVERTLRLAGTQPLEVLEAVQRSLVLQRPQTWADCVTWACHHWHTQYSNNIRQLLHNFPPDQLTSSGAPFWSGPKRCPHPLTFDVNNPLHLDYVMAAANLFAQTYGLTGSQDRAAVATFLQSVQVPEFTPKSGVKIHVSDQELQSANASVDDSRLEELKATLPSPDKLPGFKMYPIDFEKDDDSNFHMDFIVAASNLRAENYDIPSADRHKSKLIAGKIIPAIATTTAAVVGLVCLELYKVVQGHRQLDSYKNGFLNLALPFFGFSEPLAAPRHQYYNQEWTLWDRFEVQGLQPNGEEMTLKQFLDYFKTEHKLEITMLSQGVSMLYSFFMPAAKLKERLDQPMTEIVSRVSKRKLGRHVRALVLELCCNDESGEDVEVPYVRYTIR
Assay: In vitro enzyme inhibition assay: E1-mediated ubiquitin thioester transfer to E2 (band shift, silver stain)
Type: biochemical
Conditions: for inhibition of E1-mediated thioester transfer to E2 by warhead-bearing stapled peptides: Example 8; for inhibition of E1-mediated ubiquitin transfer to E2 (conversion of E2 to E2~ubiquitin): 100 μM peptide, staple scan; for inhibition of E1-mediated ubiquitin transfer to E2 (conversion of E2 to E2~ubiquitin) / inhibition of E1-mediated thioester transfer to E2, dose response: UbcH5b E2 enzyme, 45 minutes; for inhibition of E1-mediated thioester transfer to E2 by mutant / additional stapled peptides: SAH-UBE2A-11 variants and controls, Examples 4, 7, 13; for inhibition of E1-mediated thioester transfer to E2, dose response: range of peptide concentrations
Procedure: In vitro Enzyme Inhibition Assays: To assess an E2 hA peptide's inhibition of an E1 enzyme, an in vitro enzyme inhibition assay can be used, for example. The in vitro enzyme inhibition assay measures an E2 hA peptide's ability to inhibit conjugation of ubiquitin to E2 by E1. Briefly, recombinant E1 (e.g., UBA1), recombinant E2 (e.g., UBE2A), ubiquitin, and Mg-ATP are combined in the presence of an E2 hA peptide or vehicle control (e.g., 1% DMSO) for a period of time (e.g., 30 minutes) at room temperature in a buffer containing, e.g., 50 mM NaCl, 50 mM HEPES pH 7.5. Control reaction includes no E1. Reactions are quenched by addition of SDS-containing loading dye and samples are resolved on a gel (e.g., a 4-12% Bis-Tris protein gel) under nonreducing conditions. Proteins on the gel are visualized via, e.g., silver stain. Conjugation of ubiquitin to E2 by E1 is monitored by conversion of free E2 (˜17 kDa) to E2˜ubiquitin conjugate (˜26 kDa).
Control reaction included no E1 enzyme. Reactions were quenched by addition of SDS-containing loading dye and samples were resolved on a 4-12% Bis-Tris protein gel under nonreducing conditions. Proteins were visualized via silver stain. Conjugation of ubiquitin to E2 by E1 was monitored by conversion of free E2 (17 kDa) to E2˜ubiquitin conjugate (26 kDa).
The ability of the peptides to inhibit E1-mediated thioester transfer to E2 was evaluated. Human E1 activating enzyme UBA1 (10 nM), UbcH5b E2 enzyme (150 nM), ubiquitin (1 μM), and Mg-ATP (20 μM) were combined in the presence of stapled peptide at a range of concentrations or vehicle control (1% DMSO) for 45 minutes at room temperature in buffer containing 50 mM NaCl, 50 mM HEPES, 1 mM TCEP pH 7.5. Reactions were quenched by addition of SDS-containing loading dye and samples were resolved on a 4-12% Bis-Tris protein gel under nonreducing conditions. Proteins were visualized via silver stain. Conjugation of ubiquitin to E2 by E1 was monitored by conversion of free E2 (17 kDa) to E2˜ubiquitin conjugate (26 kDa). Inhibition percentage was calculated from densitometry of silver stain images.
Streptavidin-biotin pull-down assays: For recombinant protein pull-downs, 10 pmol recombinant human UBA1 was incubated with 5 nmol C-terminally biotinylated SAH-UBE2A or DMSO vehicle control in a total volume of 1 mL binding buffer (50 mM NaCl, 20 mM HEPES, pH 7.4, 5 mM DTT) for 1.5 hours at 4° C. 30 μL of pre-equilibrated streptavidin agarose beads were then added and incubated for an additional 1.5 hours at 4° C. The beads were pelleted by centrifugation and washed three times with NP-40 buffer (20 mM HEPES, pH 7.4, 50 mM NaCl, 5 mM DTT, 0.5% [v/v] NP-40) before eluting the protein sample from the beads by heating at 70° C. for 10 min in 3×SDS loading buffer. Samples were subjected to electrophoresis and silver staining (Pierce 24612). For pull-down from cellular lysates, 0.75 mg HeLa cell lysate was incubated with 5 nmol C-terminally biotinylated SAH-UBE2A or DMSO vehicle control in a total volume of 1 mL binding buffer (50 mM NaCl, 20 mM HEPES, pH 7.4, 5 mM DTT) containing protease-phosphatase inhibitor cocktail for 2 hours at 4° C. 30 μL of pre-equilibrated streptavidin agarose beads (ThermoFisher 20357) were then added and incubated for an additional 1.5 hours at 4° C. The beads were pelleted by centrifugation and washed three times with NP-40 buffer (20 mM HEPES, pH 7.4, 50 mM NaCl, 5 mM DTT, 0.5% [v/v] NP-40) before eluting the protein sample from the beads by heating at 70° C. for 10 min in 3×SDS loading buffer. Proteins were separated by SDS-PAGE gel electrophoresis and detected by western blot against UBE1 (Abcam ab34711). In vitro Enzyme Inhibition Assays: Recombinant human E1 activating enzyme UBA1 (10 nM), E2 enzyme (150 nM), ubiquitin (1 μM), and Mg-ATP (20 μM) are combined in the presence of peptide or vehicle control (1% DMSO) for 45 minutes at room temperature in buffer containing 50 mM NaCl, 50 mM HEPES pH 7.5. Control reaction includes no E1 enzyme. […]

Row | Substance | inhibition of E1-mediated ubiquitin transfer to E2 (conversion of E2 to E2~ubiquitin) | further results
1 | BPSSAX1RQLLRJX2LKEIQ ([Nle]PSSA[R8]RQLLR[Dab](Acryloyl)[S5]LKEIQ; staple 6-13; not fully specified (N-terminus, C-terminus); printed as BPSSAX1RQLLRJX2LKEIQ) [SEQ ID NO:842, warhead-bearing stapled peptide, J acrylamide-bearing Dab at A8, staple A2 and A9] |  | inhibition of E1-mediated thioester transfer to E2 by warhead-bearing stapled peptides: inhibited E1-mediated thioester transfer to E2
2 | BSTPX1RRRLJRX2FKRLQ ([Nle]STP[R8]RRRL[Dab](Acryloyl)R[S5]FKRLQ; staple 5-12; not fully specified (N-terminus, C-terminus); printed as BSTPX1RRRLJRX2FKRLQ) [SEQ ID NO:680, warhead-bearing stapled peptide, J acrylamide-bearing Dab at A7, staple A2 and A9] |  | inhibition of E1-mediated thioester transfer to E2 by warhead-bearing stapled peptides: inhibited E1-mediated thioester transfer to E2
3 | BPSSAX2RQLX2RKQLKEIQ [SEQ ID NO:42] | unable to inhibit E1-mediated ubiquitin transfer to E2 | 
4 | BSTPX1RARLBRX2FKRLQ (Ac-[Nle]STP[R8]RARL[Nle]R[S5]FKRLQ-NH2; staple 5-12) [SEQ ID NO:817] |  | inhibition of E1-mediated thioester transfer to E2 by mutant / additional stapled peptides: impair the inhibitory activity of SAH-UBE2A-11
5 | BPSSX2SRQX2LRKQLKEIQ [SEQ ID NO:41] | unable to inhibit E1-mediated ubiquitin transfer to E2 | 
6 | BPSSASRQLLRKQX2KEIX2 [SEQ ID NO:48] | unable to inhibit E1-mediated ubiquitin transfer to E2 | 
7 | BX1LKRIHKX2LNDLARD [SAH-UBE2D2-11] |  | inhibition of E1-mediated thioester transfer to E2, dose response: inhibited E1-mediated thioester transfer to E2 in a dose-dependent manner; also recorded: dose-dependently inhibit E1-mediated thioester transfer to E2
8 | BPSSASRQX2LRKX2LKEIQ [SEQ ID NO:44] | inhibited conversion of E2 to E2˜ubiquitin by E1 | 
9 | BPSSASRQLLRKX2LKEX2Q [SEQ ID NO:47] | inhibited conversion of E2 to E2˜ubiquitin by E1 | 
10 | BPSSAX1RQLLRKX2LJEIQ ([Nle]PSSA[R8]RQLLRK[S5]L[Dab](Acryloyl)EIQ; staple 6-13; not fully specified (N-terminus, C-terminus); printed as BPSSAX1RQLLRKX2LJEIQ) [SEQ ID NO:844, warhead-bearing stapled peptide, J acrylamide-bearing Dab at A11, staple A2 and A9] |  | inhibition of E1-mediated thioester transfer to E2 by warhead-bearing stapled peptides: inhibited E1-mediated thioester transfer to E2
11 | BPSSASRQLX2RKQX2KEIQ [SEQ ID NO:45] | unable to inhibit E1-mediated ubiquitin transfer to E2 | 
12 | BPSSASRX2LLRX2QLKEIQ [SEQ ID NO:43] | unable to inhibit E1-mediated ubiquitin transfer to E2 | 
13 | X1ALKRIHX2ELJDLARD ([R8]ALKRIH[S5]EL[Dab](Acryloyl)DLARD; staple 1-8; not fully specified (N-terminus, C-terminus); printed as X1ALKRIHX2ELJDLARD) [SEQ ID NO:763, warhead-bearing stapled peptide, J acrylamide-bearing Dab at A11, staple A1 and A8] |  | inhibition of E1-mediated thioester transfer to E2 by warhead-bearing stapled peptides: did not inhibit E1-mediated thioester transfer to E2
14 | BSTPX1RRRLARX2FKRLQ (Ac-[Nle]STP[R8]RRRLAR[S5]FKRLQ-NH2; staple 5-12) [SEQ ID NO:820] |  | inhibition of E1-mediated thioester transfer to E2 by mutant / additional stapled peptides: impair the inhibitory activity of SAH-UBE2A-11
15 | BPSSASRQLLRX2QLKX2IQ [SEQ ID NO:46] | inhibited conversion of E2 to E2˜ubiquitin by E1 | 
16 | BPSSASRX1LLRKQLX2EIQ [SEQ ID NO:52] | inhibited conversion of E2 to E2˜ubiquitin by E1 | 
17 | BPSSASX1QLLRKQX2KEIQ [SEQ ID NO:51] | unable to inhibit E1-mediated ubiquitin transfer to E2 | 
18 | BPSSX1SRQLLRX2QLKEIQ [SEQ ID NO:49] | inhibited conversion of E2 to E2˜ubiquitin by E1 | 
19 | BX1LKRIHKX2LJDLARD ([Nle][R8]LKRIHK[S5]L[Dab](Acryloyl)DLARD; staple 2-9; not fully specified (N-terminus, C-terminus); printed as BX1LKRIHKX2LJDLARD) [SEQ ID NO:727, warhead-bearing stapled peptide, J acrylamide-bearing Dab at A11, staple A2 and A9] |  | inhibition of E1-mediated thioester transfer to E2 by warhead-bearing stapled peptides: inhibited E1-mediated thioester transfer to E2
20 | BPSSX1SRQLLRX2QLJEIQ ([Nle]PSS[R8]SRQLLR[S5]QL[Dab](Acryloyl)EIQ; staple 5-12; not fully specified (N-terminus, C-terminus); printed as BPSSX1SRQLLRX2QLJEIQ) [SEQ ID NO:841, warhead-bearing stapled peptide, J acrylamide-bearing Dab at A11, staple A1 and A8] |  | inhibition of E1-mediated thioester transfer to E2 by warhead-bearing stapled peptides: inhibited E1-mediated thioester transfer to E2
21 | BAGTX1LKRLBAX2YK [SAH-UBE2G2-11] |  | inhibition of E1-mediated thioester transfer to E2, dose response: inhibited E1-mediated thioester transfer to E2 in a dose-dependent manner; also recorded: dose-dependently inhibit E1-mediated thioester transfer to E2
